Source: patent publication US10865203B2, “Ligands selective to alpha 6 subunit-containing GABAA receptors and their methods of use” (UWM Research Foundation, Inc., priority 2015, dated 2020)
“Also recorded” adds a separate entry of the source. Read-outs that look alike come from different tables or passages of the source.

Experiments:
[1] = Microsomal stability assay, human liver microsomes; assay type: in vitro ADME; details: for % left after 1 hr. (HLM) / Half-life (min) (HLM) / half-life at 10 μM: 10 μM test compound, 0.5 mg/mL protein, 37° C.; for half-life at 10 μM: human, liver microsomes, pH 7.4, read-out: Half-life (min) (HLM); for stability in Human liver microsomes: Table 2
Summary of the method: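 Test compound at 10 μM was preincubated 5 min at 37 °C in phosphate buffer pH 7.4 with NADPH regenerating system, then started with human or mouse liver microsomes at 0.5 mg/mL protein. Samples were taken at 0–60 min and quenched in cold acetonitrile with internal standard. Slope k came from ln peak-area ratio versus time, three repeats in duplicate.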

[2] = tested on: METH-impaired PPI in C57/B6 mice; assay: PPI test, methamphetamine-impaired prepulse inhibition; assay type: in vivo, mouse; details: for rescue of METH-impaired PPI: mice, compound 10 mg/kg i.p. 15 min before METH 2 mg/kg i.p.
Description: All animal experiments conducted at NTU were approved by the Institutional Animal Care and Use Committee of College of Medicine, National Taiwan University. C57/B6 (8-10 weeks) mice were used for the PPI test and Wistar rats (8-9 weeks) were used in the migraine model. Animals were housed in an animal room with a 12-h light/12-h dark cycle and free access to food and water.
The PPI test was conducted with a PPI apparatus (SR-LAB, San Diego Instruments, San Diego, Calif.) consisting of a startle chamber equipped with various programming acoustic stimulations. After acclimation, the mouse was gently placed in the startle chamber for a 4 min acclimation period with a background noise of 65 dB, which continued throughout the whole PPI test session. One PPI test session consisted of 4 types of startle trials, including the trial with the startle pulse (115 dB) alone (PULSEALONE; 115 dB, 20 ms), two trials with the startle pulse paired with 71 and 77 dB prepulses, respectively (PREPULSE+PULSE; 71 dB+115 dB and 77 dB+115 dB), and the trial without stimulus (NOSTIM; background 65 dB only). A test session started and ended, respectively, with four NOSTIM trials and four PULSEALONE trials. In between, each of the four types of trials was presented 14 times randomly, that is, 56 trials were given in a test session. The intertrial interval was given randomly from 5 to 20 s. In the PREPULSE+PULSE trial, a 71 or 77 dB prepulse was given 120 ms before the 115 dBpulse. The magnitude of PPI (PPI %) was determined, after summarizing the startle responses in PULSEALONE and PREPULSE+PULSE trials, according to the equation (PULSEALON−PREPULSE+PULSE)/PULSEALONE×100%. The tested compound or vehicle was given to the animal for 15 min, followed by methamphetamine (2 mg/kg). The PPI test was conducted 10 min after injection of methamphetamine. Data were expressed as the mean±S.E.M. Statistical comparisons among groups were analyzed by ANOVA with Tukey post hoc test, and differences between groups were analyzed by Student's t-test. Two-way ANOVA with Bonferroni's post hoc test was used to analyze differences in the time courses of locomotor activity among groups. Differences were considered significant if P<0.05.
Methamphetamine and apomorphine were dissolved in normal saline for i.p. And s.c. Injections, respectively. Tested compounds and haloperidol, when given by i.p. Injection, were dissolved in a vehicle containing 20% dmso, 20% Cremophor® el (polyoxyethylene castor, sigma-aldrich) and 60% normal saline. Furosemide was dissolved (20 nmole/μL) in dimethylsulfoxide for intra-cerebellar microinjection the i.p. or s.c. Injection volume was 10 mL/kg.

α1,4,6β3δ receptors = assay: Electrophysiology in Xenopus oocytes, delta-containing receptors; assay type: cell-based, rat
Description: Mature female Xenopus laevis (Nasco, Fort Atkinson, Wis., USA) were anaesthetized in a bath of ice-cold 0.17% Tricain (Ethyl-m-aminobenzoat, Sigma-Aldrich, St. Louis, Mo., USA) before decapitation and transfer of the frog's ovary to ND96 medium (96 mM NaCl, 2 mM KCl, 1 mM MgCl2, 5 mM HEPES; pH 7.5). Following incubation in 1 mg/mL collagenase (Sigma-Aldrich, St. Louis, Mo., USA) for 30 min, stage 5 to 6 oocytes were singled out of the ovary and defolliculated using a platinum wire loop. Oocytes were stored and incubated at 18° C. in NDE medium (96 mM NaCl, 2 mM KCl, 1 mM MgCl2, 5 mM HEPES, 1.8 mM CaCl2; pH 7.5) that was supplemented with 100 U per mL-1 penicillin, 100 μg per mL-1 streptomycin and 2.5 mM pyruvate. Oocytes were injected with an aqueous solution of mRNA. A total of 2.5 ng of mRNA per oocyte was injected. Subunit ratio was 1:1:5 for αxβγ2 (x=1, 2, 3, 5) and 3:1:5 for α4/6β3γ2 and αβδ receptors. Injected oocytes were incubated for at least 36 h before electrophysiological recordings. Oocytes were placed on a nylon-grid in a bath of NDE medium. For current measurements, the oocytes were impaled with two microelectrodes (2-3MΩ), which were filled with 2 M KCl. The oocytes were constantly washed by a flow of 6 mL per min-1 NDE that could be switched to NDE containing GABA and/or drugs. […] All recordings were performed at room temperature at a holding potential of −60 mV using a Warner OC-725C TEV (Warner Instrument, Hamden, Conn., USA) or a Dagan CA-1B Oocyte Clamp or a Dagan TEV-200A TEV (Dagan Corporation, Mineapolis, Minn., USA). Data were digitized using a Digidata 1322A or 1550 data acquisition system (Axon Instruments, Union City, Calif., USA), recorded using Clampex 10.5 software (Molecular Devices, Sunnyvale, Calif., USA), and analyzed using Clampfit 10.5 and GraphPad Prism 6.0 (La Jolla, Calif., USA) software. Concentration-response data were fitted using the Hill equation. Data are given as mean±SEM from at least three oocytes of two batches.
For selected test compounds full dose response curves were recorded in α1-6β3γ2 receptors. For selected compounds, dose response curves in additional receptor subtypes (α1, 4, 6β3δ, α6β1, 2γ2, α1-6β3) were also obtained. For a wider panel of compounds, a two point screening pharmacology was obtained at 1 and 10 μM compound concentrations.

| SMILES | % left after 1 hr. (HLM) [1] [%] | Half-life (min) (HLM) [1] | rescue of METH-impaired PPI [2] | half-life at 10 μM [1] [min] | α6 preference among α1,4,6β3δ receptors (α1,4,6β3δ receptors) | stability in Human liver microsomes [1] [%] | effect of intra-cerebellar furosemide on the rescue of PPI ([2]; furosemide 10 nmol intra-cerebellar microinjection) | rescue of METH-impaired PPI ([2]; listed as C6) | rescue of METH-impaired PPI ([2]; listed as compound 6) | α6 preference among α1,4,6β3δ receptors (α1,4,6β3δ receptors; listed as compound 6) |
| --- | --- | --- | --- | --- | --- | --- | --- | --- | --- | --- |
| [2H]C([2H])([2H])Oc1ccc(-n2nc3c4ccc(OC)cc4[nH]cc-3c2=O)cc1 [DK-I-56-1, 7-Methoxy-2-(4-methoxy-d3-phenyl)-2,5-dihydro-3H-pyrazolo[4,3-c]quinolin-3-one] | 91.69 ± 0.09 | 520 ± 51 | effective | – | – | – | – | – | – | – |
| COc1ccc(-n2nc3c4ccc(Br)cc4[nH]cc-3c2=O)cc1 [LAU 463, 7-Bromo-2-(4-methoxyphenyl)-2,5-dihydro-3H-pyrazolo[4,3-c]quinolin-3-one] | 66.86 ± 0.13 | – | effective; also recorded: comparable rescue effect as Compound 6 | 104 ± 4 | α6 preference | – | – | – | – | – |
| COc1cccc(-n2nc3c4cc(Cl)ccc4[nH]cc-3c2=O)c1 [LAU 159, 8-Chloro-2-(3-methoxyphenyl)-2,5-dihydro-3H-pyrazolo[4,3-c]quinolin-3-one] | 81.44 ± 0.16 | – | effective; also recorded: comparable rescue effect as Compound 6 | 207 ± 15 | preferentially modulate the α6β3δ receptor; also recorded: α6 preference | ~80 | – | – | – | – |
| [2H]C([2H])([2H])Oc1ccc2c3nn(-c4ccc(OC)nc4)c(=O)c-3c[nH]c2c1 [DK-I-86-1, 7-Methoxy-d3-2-(6-methoxypyridin-3-yl)-2,5-dihydro-3H-pyrazolo[4,3-c]quinolin-3-one] | 92.3 ± 0.13 | 752.30 ± 261 | – | – | – | – | – | – | – | – |
| COc1ccc(-n2nc3c4ccc(OC)cc4[nH]cc-3c2=O)cc1 [Compound 6, 7-Methoxy-2-(4-methoxyphenyl)-2,5-dihydro-3H-pyrazolo[4,3-c]quinolin-3-one] | 86.1 ± 1.0 | – | effectively rescued | 212 ± 25 | α6 preference | 86 | prevented | significantly rescued | effective; also recorded: significantly rescued | preferentially modulate the α6β3δ receptor |
